Entries after “also recorded” stand apart in the source; their conditions may differ.
Experiments:
MDA-MB-231 = experiment: B-Catenin localization to cell-cell junctions; type: cell-based; conditions: 48 hours, 2D-treated cells
[1] = once daily 16 mg/kg ip for several weeks, cited from earlier work
BT-549 = experiment: CD24 mRNA expression in 2D for 48h; type: cell-based
Description: (§1) FIG. 3H depicts relative CD24 mRNA expression. CD24 expression was an early indicator of response to ISX9 in 2D across several TNBC cell lines. Treatment screening of several different TNBC cell lines with ISX9 in 2D for 48h yielded four responders, as determined by CD24 mRNA expression (FIG. 3H).

MDA-MB-468 = experiment: CD24 mRNA expression in 2D for 48h; type: cell-based
Description: as §1

SUM149 = experiment: CD24 mRNA expression in 2D for 48h; type: cell-based
Description: as §1

MDA-MB-436 = experiment: CD24 mRNA expression in 2D for 48h; type: cell-based
Description: as §1

MDAs [2] = experiment: western blot of EMT markers E-cadherin and Vimentin; type: cell-based
Description: Given the strong phenotypic changes induced by ISX9 in HD Col1 (FIG. 2), this example also assessed the differentiation activity of ISX9 by characterizing Epithelial-to-Mesenchymal (EMT) status using western blot (WB) analysis of E-cadherin and vimentin levels. […] FIG. 3D depicts WB of EMT markers E-cadherin and Vimentin in cancer cell lines treated with vehicle or ISX9.
To understand whether ISX9 treatment could induce Mesenchymal-to-Epithelial Transition (MET), western blotting (WB) was performed for the epithelial marker E-Cadherin (CDH1) and the Mesenchymal marker Vimentin (Vim) on 2D and HD Collagen-treated tumor cells (FIG. 4D). FIG. 4D depicts a western blot analysis of EMT markers E-cadherin and Vimentin in MDAs treated with vehicle or ISX9 for 7 days in 2D TC or HD Col1.

PIM-025 PDOs [3] = experiment: sensitivity of PDOs to doxorubicin after pre-treatment; type: cell-based; conditions: pre-treatment 5d, then doxorubicin 3d
Description: (§2) To determine if these effects would translate to increased sensitivity to chemotherapy, both sets of PDOs were treated with ISX9 for 5d, followed by doxorubicin for 3d. […] FIG. 8P and FIG. 8Q depicts results of tests showing that PIM-025 PDOs and PA-14-13 PDOs, respectively, pre-treated with ISX9 acquire increased sensitivity to doxorubicin.

PA-14-13 PDOs [4] = experiment: as above; type: cell-based; conditions: pre-treatment 5d, then doxorubicin 3d
Description: as §2

[5] = tested on: MDAs and MDA-231-BrM2 (TNBC), Py8119 (Breast Cancer), HT-1080 (fibrosarcoma), Sk-HEP-1 (liver cancer), and R40P (PDAC) cells; experiment: phenotype screen for anti-invasive activity in the HD Col1 model system; type: cell-based; conditions: HD Col1, 7 days of culture; all six cell lines
Description: In this example, it was explored whether isoxazole derivatives could similarly induce differentiation of CSCs occupying the clinically relevant notch-activated state conferred by the HD Col1 model system of Example 1 (Table 1, FIG. 1). […] FIG. 2 includes brightfield microscopy images of cancer cell lines at 7 days of culture in HD Col1 treated with vehicle or ISX9 (scale bar=250 μm).

MDAs [6] = experiment: flow cytometry of CD44+/CD24- CSC population in MDAs; type: cell-based
Description: To further assess differentiation status, RT-PCR and flow cytometry (FC) was used to quantify expression of the CSC stemness biomarker signature CD44^+/CD24^− in MDAs. At the population level, MDAs increased CD24 mRNA expression ˜14-fold with ISX9 treatment after 7 days (FIG. 3E). FIG. 3E depicts RT-qPCR of CD24 expression in MD As treated with vehicle or ISX9. […] (FIG. 3F, FIG. 3G). FIG. 3F and FIG. 3G depicts flow cytometry analysis of MDAs treated with vehicle or ISX9.
Cells in 2D tissue culture and HD Collagen I were treated with ISX9 daily for 7 days, dissociated and flow-sorted. […] These figures depict fluorescence profiles of CD44/CD24 in MDAs treated with vehicle or ISX9 for 7 days in (FIG. 4A) 2D TC or (FIG. 4B) HD Col1. FIG. 4C depicts a flow cytometry analysis of CD44^+/CD24^− MDA cells treated with vehicle or ISX9.

PIM-025 PDOs [7] = experiment: western blot of E-Cadherin and Vimentin in PDOs; type: cell-based; conditions: 6 days
Description: (§3) FIG. 8N depicts a western blot analysis of E-Cadherin and Vimentin in PIM-025 PDOs treated with vehicle or ISX9 for 6 days. FIG. 8O depicts a western blot analysis of E-Cadherin and Vimentin in PA-14-13 PDOs treated with vehicle or ISX9 for 6 days.

PA-14-13 PDOs [8] = experiment: western blot of E-Cadherin and Vimentin in PDOs; type: cell-based; conditions: 6 days
Description: as §3

Notch pathway genes = experiment: RT-qPCR gene expression analysis of Notch target genes in MDAs; type: cell-based; conditions: 24h in HD Col1, vs vehicle
Description: Also assessed was how the Notch pathway responded to ISX9 treatment. […] FIG. 3A depicts the results of a RT-qPCR gene expression analysis of Notch target genes in vehicle and Isx9 treated MDAs.

[9] = cited from earlier work
MDAs [10] = experiment: CytoTox-Fluor cytotoxicity assay; type: cell-based; conditions: 2D, 1-40 μM
Description: FIG. 7C depicts the metabolic activity, cytotoxicity, and relative CD24 expression dose-response to ISX9.

MDAs [11] = experiment: flow cytometry of CDH1+ MDA cells in 2D and 3D Collagen I densities; type: cell-based
Description: To determine whether induction of MET was specific to the HD Collagen I condition or generally applicable to all ISX9-treated cells in a 3D Collagen condition, CDH1^+ cells in 2D, and multiple 3D Collagen I densities were flow-sorted (1 mg/mL, 2.5 mg/mL, and 6 mg/mL Col1) (FIG. 4F, FIG. 4G).) FIG. 4F depicts fluorescence profiles of CDH1 in MDAs treated with vehicle or ISX9 for 7 days in 2D TC, LD Col1, MD Col1, or HD Col1 conditions. FIG. 4G depicts a flow cytometry analysis of CDH1^+ MDA cells treated with vehicle or ISX9 in 2D TC, LD Col1, MD Col1, or HD Col1.

O=C(NC1CC1)c1cc(-c2cccs2)on1 [ISX9, Isoxazole 9]
B-Catenin localization to cell-cell junctions (MDA-MB-231): significant increase in B-Catenin localization | tolerability (signs or symptoms) ([1]; 16 mg/kg): well-tolerated; also recorded: no signs or symptoms of lethargy, weight loss or decreased appetite | serum biochemistry and hematology profiles [1]: normal | CD24 mRNA expression (FC) (BT-549): ~12.6 | CD24 mRNA expression (FC) (MDA-MB-468): ~0.6 | CD24 mRNA expression (FC) (SUM149): ~2.7 | CD24 mRNA expression (FC) (MDA-MB-436): ~7.1 | effect on MET markers E-Cadherin and Vimentin (WB) (MDAs [2]; 2D-treated cells, 7 days): no effect on either MET marker | E-cadherin expression (WB) (MDAs [2]; 7 days in HD Col1): increased E-cadherin expression; also recorded: increase in E-Cadherin | Vimentin expression (WB) (MDAs [2]; 7 days in HD Col1): reduced Vimentin expression; also recorded: decrease in Vimentin | increase in sensitivity to doxorubicin (PIM-025 PDOs [3]): 2.9 fold | increase in sensitivity to doxorubicin (PA-14-13 PDOs [4]): 85.8 fold | invasive capability [5]: significant abrogation of the invasive capability | population of CD44+/CD24- CSCs (MDAs [6]; 2D and HD Collagen I, treated daily for 7 days): reducing the population of CD44^+/CD24^− CSCs to a similar degree | CD44+/CD24- cells, share of the population (MDAs [6]; with treatment, vehicle ˜100%): ~67% | Vimentin expression (WB) (PIM-025 PDOs [7]): no observed differences to Vimentin expression | Vimentin expression (WB) (PA-14-13 PDOs [8]): no observed differences to Vimentin expression | expression of Notch pathway genes (Notch pathway genes): significantly increased | detection in heart tissue ([9]; ip injection): detected | terminal half-life in plasma ([9]; single bolus ip injection): < 15 min | cytotoxicity (MDAs [10]): without any observable increase in cytotoxicity | CDH1+ induction (MDAs [11]; 1 mg/mL and 2.5 mg/mL Col1, 7 days): unable to re-express CDH1^+to similar levels | effect on CDH1+ cells (MDAs [11]; 2D, 7 days): small effect | population of CDH1+ cells (MDAs [11]; HD (6 mg/mL) Col1, 7 days): highest population of CDH1^+ cells

From patent US20250362286A1, “SCREENING MODELS AND METHODS OF CANCER TREATMENT” (The Regents of the University of California, priority 2022, published 2025)
